Experimental data reported in patent publication EP0740650B1, “CODRUGS AS A METHOD OF CONTROLLED DRUG DELIVERY” (priority 1994, dated 1995).
Values belong to the compound of their own block, whether it stands above or below them.

Legend:
physchem [1] = assay type: physicochemical; details: phosphate buffer
Protocol: (§1) A stock solution was prepared by dissolving 10 mg of 5FU/TRI in 10 ml acetonitrile. This was then added to a series of phosphate buffers at pH 3, 5, 6.4, 7.4 and 8.4 at 37°C to give final concentrations of 100 ug/ml. Care was taken to ensure that these solutions were indeed solutions and not suspensions. Samples were periodically removed and assayed by HPLC as described below. Enzymatic hydrolysis was determine in a similar way using pooled serum from 3 volunteers. The assay procedure used distinguished between TRI and 5FU/TRI. 5FU was assayed under different conditions. HPLC Assays: Samples of buffer containing codrug and steroids were assayed by HPLC using a fully automated Hitachi system with a C-18 reverse phase column (25 cm × 4 mm x 5 µm) and uv detection. The mobile phase was 40% acetonitrile buffered to 4.0 with 0.02% sodium acetate. The flow rate was 1.0 ml/min and detection was at 238 nm. Under these conditions the retention time of the codrug 5FU/TRI was 17 minutes while triamcinolone acetonide eluted at 9 minutes. Quantitation limits were 0.3 and 0.5 ug/ml, respectively. […] For 5FU an Applied Biosystems HPLC system was used with a C-18 column reverse phase column (25 cm x 4 mm x 5 µm) and 0.02% sodium acetate buffer mobile phase (Ph 4.0). The flow rate was 1.0 ml/min and detection was by uv at 266 nm. Under these condition the retention time was 6.5 minutes and the detection limit 0.2 ug/ml.

in vitro = in vitro ADME; details: human, serum, t½
Protocol: as §1, with “Under these condition the retention time was 6.5 minutes and the detection limit 0.2 ug/ml.” left out
To quantitate 5FU it was necessary to remove acetonitrile before analysis. […]

[2] = Vitreous concentrations after intravitreal implantation of codrug pellets (Example 4); assay type: in vivo, New Zealand white rabbits
Protocol: Two mg pellets of the codrug 5FU/TRI were prepared using a 1.5 mm press. These pellets were then fixed onto 6-0 nylon suture using intraocular lens grade silicone. silicone covered the base of the pellets providing a platform for suture attachment. Alternatively a solution of 2% or 5% polylactic acid was used. Pellets attached by both methods were implanted into the vitreous of 8 New Zealand white rabbits through a small incision through the sclera. For each type of device, two animals were killed after 1, 2, 3, and 4 weeks and the vitreous and aqueous obtained from the frozen sphere. Before death animals were examined with a slit lamp. […] Pellets were then implanted into the vitreous of 8 New Zealand White rabbits in a similar manner to that described in 3b except that sclerotomy sites were smaller in this case (2.5 mm). […] HPLC analysis was then performed on tissue samples and explanted devices to determine the concentrations of 5FU, triamcinolone acetonide and intact 5FU/TRI.

[3] = Intravitreal codrug implants: pharmacokinetics and toxicity (Example 8); assay type: in vivo, New Zealand White rabbits; details: intravitreal implant
Protocol: (§2) Bioerodible codrug implants were prepared 1.5 mm in diameter and attached to 6-0 nylon suture. Implants were immersed in 5 ml of phosphate buffer (pH 7.4) and samples periodically removed for HPLC assay to determine the release of both 5FU and TRI. Similar implants were then inserted into the vitreous of 14 New Zealand White rabbits (figure 4). Toxicity was assess by electroretinogram and slit lamp examination in all animals. Histopathologic examination was performed on four animals. Ten animals were used for pharmacokinetics; two animals were sacrificed 1, 2, 3, 4 and 5 weeks after implantation. Eyes were enucleated, devices removed and both vitreous and aqueous obtained. All samples were assayed by HPLC. Five animals received actual devices in one eye and placebo implants in contralateral eyes. These were sacrificed after 3 and 6 weeks for histopathologic examination.

physchem [4] = details: buffer
[5] = test system: extraocular muscle (EOM) surgery in rabbits; assay: Scar reduction after extraocular muscle surgery with codrug implants (Example 5); assay type: in vivo
Protocol: After the IRM was sewn back into its insertion site, four 2 mg codrug implants were inserted between sclera and muscle in the right eye, while the left was used as a control. Bioerodible codrug implants releasing 5FU and TRI over 6 weeks were prepared. Devices release equimolar amounds of 5FU and TRI. Animals were sacrificed at 1, 2 and 3 weeks and eyes eviscerated. Specimens were prepared and stained with H&E. The scar thickness and cellular infiltrate were determined quantitatively using a Bioscan image analysis program.

[6] = Subconjunctival codrug devices: release from explanted devices, toxicity (Example 6); assay type: in vivo, rabbits; details: rabbit
Protocol: Codrug devices were prepared as flat discs 2.5 mm in diameter weighing 5 mg. Each device contained approximately 3.7 mg of TRI and 1.3 mg of 5FU and were composed of over 97% active substance. Devices were implanted subconjunctivally in each eye of ten rabbits (figure 2). Toxicity and inflammation were determined by weekly slit lamp examinations and electroretinograms (ERGs). Animals were sacrificed after 3, 7, 10 and 14 days and eyes eviscerated. After freezing at -70°C devices were removed for determination of residual drugs and the complete vitreous and aqueous dissected from the ice ball to determine the concentration of SFU and TRI. Two animals were used for histology and were sacrificed 6 weeks after implantation.

[7] = In vitro release from 1.5 mm codrug implants in phosphate buffer (Example 8); assay type: physicochemical; details: 1.5 mm implant, phosphate buffer pH 7.4
Protocol: as §2

[8] = immersed in pH 7.4 buffer
[9] = test system: posterior capsular opacification (PCO); assay: Posterior capsular opacification after cataract extraction and IOL implantation with codrug pellet (Example 7); assay type: in vivo, New Zealand White rabbits
Protocol: Codrug pellets were prepared that gave pseudo zero order release of 5FU and TRI in an equimolar ratio over 6 weeks. […] 1.5 mm pellets containing 1.5 mg of TRI and 0.5 mg 5FU were prepared and fixed to the haptics of IOLs using the bioerodible polybutyl cyanoacrylate. This polymer is soaked into the pellet forming a codrug/cyanoacrylate matrix as it dried (figure 3). 16 New Zealand White rabbits were used in this study, one eye (control) received a polymethyl methacrylate intraocular lens (IOL) (Chiron Intraoptics) while the other received an IOL with codrug. Eyes were examined regularly by slit lamp and PCO scored from 0 to 4+. Retinal function was determined by electroretinogram (ERG) before implantation and before sacrifice. Animals were sacrificed after 4, 8, 12 and 16 weeks; eyes were removed and fixed in formalin. Photographs of posterior capsule were projected onto a grid and the percentage of PCO calculated.

[10] = In vitro release from 2 mg codrug pellets in phosphate buffer (Example 3); assay type: physicochemical
Protocol: Two mg pellets of the codrug 5FU/TRI were prepared in a 1.5 mm pellet press using a modified Parr Instrument Press. Pellets were then immersed in 5 ml phosphate buffer (Ph 7.4, 37 °C) and 300 µl samples removed each day for 6 days; there immediately replaced was replaced 300 µl of buffer. Samples were assayed by HPLC for 5FU/TRI, triamcinolone acetonide and 5FU. After 6 days buffer was completely replaced, to maintain sink conditions, and sampling continued.

[11] = test system: proliferative vitreoretinopathy (PVR); assay: Intravitreal pellet after vitrectomy, proliferative vitreoretinopathy; assay type: in vivo; details: pellet implanted intravitreally after vitrectomy; animal studies proceeding
[12] = Stability of acetazolamide sulfocarbamate derivative in buffer solution; assay type: physicochemical

Compound: CC1(C)O[C@@H]2C[C@H]3[C@@H]4CCC5=CC(=O)C=C[C@]5(C)[C@@]4(F)[C@@H](O)C[C@]3(C)[C@]2(C(=O)COC(=O)OCn2cc(F)c(=O)[nH]c2=O)O1 [5FU/TRI]
half-life (physchem [1]; pH 3): 204 h | half-life (physchem [1]; pH 5): 12.7 h | half-life (physchem [1]; pH 6.4): 1.3 h | half-life (physchem [1]; pH 7.4): 0.235 h | half-life (physchem [1]; pH 8.4): 0.163 h | half-life (in vitro; half-life): < 10 min | half-life (in vitro): 8.8 min | intact codrug in the vitreous ([2]; 2 mg pellets implanted in rabbit vitreous): No intact codrug was detected | intravitreal levels of triamcinolone ([2]; rabbit vitreous, week 5): below the detection limit of the HPLC | Levels of TRI and 5FU in the aqueous ([3]; rabbit): too low to be detected | tolerability in rabbit eyes ([3]; ERG, slit lamp, histopathology): well tolerated in rabbit eyes with no indication of toxicity or inflammation | half-life (physchem [4]; pH 3): > 48 h | half-life (physchem [4]; pH 7.4): < 0.05 h | number of inflammatory cells in a defined area of tissue ([5]; 40 µm^2 area, control > 300): < 35 | scar thickness ([5]; drug treated eyes (controls 35 µm)): 7 µm | decrease in scar thickness compared to controls ([5]; four 2 mg implants between sclera and muscle, rabbit): 80% | ERGs ([6]; in vivo): normal | release rate of 5FU and TRI from explanted devices (pseudo zero order) ([6]; in vivo): 9 +/-1 % per day | toxicity or inflammation around the implantation site ([6]; subconjunctival devices, slit lamp): no evidence of toxicity or inflammation | release of 5FU in buffer [7]: 0.3 µg/h | release of TRI in buffer [7]: 1.4 µg/h | release of TRI and 5FU from compressed pellet [8]: slowly releases both TRI and 5FU over an extended period of time (months) | tolerability (ERG and histopathologic data) ([9]; codrug pellet on IOL haptic, rabbit capsular bag): well tolerated with no indication of a toxic or inflammatory response | PCO by slit lamp examination, study versus control eyes ([9]; p< 0.001): statistically significant decrease in PCO | PCO assessed using a grid ([9]; p< 0.03 by 8 weeks): arrest of opacification | fraction of triamcinolone acetonide and 5FU released while rates were maintained ([10]; 2 mg pellet, phosphate buffer pH 7.4): over 60% | Release of 5FU ([10]; 2 mg pellet, phosphate buffer pH 7.4, 37 °C): 0.4 ± 0.06 µg/h | intact codrug in the receptor medium ([10]; 2 mg pellet, phosphate buffer pH 7.4, 37 °C, HPLC detection limit 0.5 ug/ml): No intact codrug was detected | mean release rate of triamcinolone acetonide ([10]; 2 mg pellet, phosphate buffer pH 7.4, 37 °C, pseudo zero order): 1.4 ± 0.3 µg/h | mean ratio of 5FU to triamcinolone acetonide concentration (ug/ml) in the receptor solution ([10]; all time points (equimolar release)): 3.40 +/- 0.15 | occurrence of PVR [11]: reduce the occurrence of PVR

stability in buffer solution [12]: appears to stable in buffer solution
Compound: CC(=O)Nc1nnc(S(=O)(=O)NC(=O)O[C@@H]2C[C@H](C)CC[C@H]2C(C)C)s1 [product 35]
